Test results from patent US11992497B2 (priority 2021, dated 2024).
Entries after “also recorded” stand apart in the source; their conditions may differ. Where two headings read alike, the source gives them in different places.

What was measured:
UGT1A4 = molecular target: T1, UGT1A4 (Homo sapiens, UniProt P22310); assay: UGT reaction phenotyping, recombinant Supersomes; assay type: in vitro ADME
T1 construct: purchased BD Biosciences
T1 sequence (P22310 29-534): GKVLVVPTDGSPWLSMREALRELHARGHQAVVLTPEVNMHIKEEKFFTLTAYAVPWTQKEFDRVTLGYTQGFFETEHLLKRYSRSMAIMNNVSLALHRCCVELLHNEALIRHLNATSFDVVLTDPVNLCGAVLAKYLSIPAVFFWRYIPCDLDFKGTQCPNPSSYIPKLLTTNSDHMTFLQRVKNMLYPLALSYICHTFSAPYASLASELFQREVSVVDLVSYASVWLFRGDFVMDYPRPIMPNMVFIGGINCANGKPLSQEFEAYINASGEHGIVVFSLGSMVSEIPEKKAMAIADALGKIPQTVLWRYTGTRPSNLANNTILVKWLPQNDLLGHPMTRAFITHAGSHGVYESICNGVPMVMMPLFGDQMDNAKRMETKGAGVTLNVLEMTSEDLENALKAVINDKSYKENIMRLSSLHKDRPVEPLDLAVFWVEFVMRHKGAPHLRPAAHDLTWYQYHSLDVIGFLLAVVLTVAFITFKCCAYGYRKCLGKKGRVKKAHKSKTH
Description: Experimental Summary: UGT Reaction Phenotyping (7 Isoforms).

[1] = PK and Tmax of CBD and Compound 3 after IP administration; assay type: in vivo; conditions: male C57BL/6 mice; for Cmax / AUC(0-t): mouse, in vivo; for AUC(0-t): read-out: AUC(0-t) (obs area)
Description: The purpose of this study was to determine the pharmacokinetics and time of maximum plasma (Tmax) of the test articles (TA) CBD and Compound 3 following intraperitoneal (IP) administration to male C57BL/6 mice. This method of TA delivery, dose and mouse strain was to be used in a subsequent Pentylenetetrazol (PTZ) induced seizure model for the evaluation of the TA's for anti-epileptic activity.

[2] = tested on: lipopolysaccharide (LPS)-induced inflammation; assay: Rat LPS model, serum pro-inflammatory cytokines; assay type: in vivo, Sprague Dawley rats; conditions: oral, 4 days; 2 h after LPS
Procedure: This assay was employed to determine the efficacies of CBG, compound 1, and compound 2 against lipopolysaccharide (LPS)-induced inflammation in Sprague Dawley rats.
Eight- to 10-week-old male rats were treated with CBG, Compound 1, and Compound 2, or a positive control (cyclosporin A) for four days prior to treatment with LPS. Twenty-eight (28) Sprague Dawley male rats, 8-10 weeks old, were used for this study. Animals were randomized by weight into one of 7 treatment groups as shown in Table 10 below and treated for 4 days with either vehicle control (Groups 1 and 2), Cyclosporin A (Neoral) (Group 3), CBG at 30 mg/kg (Group 4), Compound 1 at 31.5 mg/kg (Group 5), Compound 2 at 32.7 mg/kg (Group 6) or CBG at 30 mg/kg (intraperitoneal/IP; Group 7). Groups 1-6 were dosed for 4 days by oral gavage; group 7 was dosed for 4 days by IP injection. After the 4th injection, Groups 2-7 received a single IP injection of LPS at 5 mg/kg to induce inflammation. Body weight was recorded every other day starting on the day of or day prior to the first day of treatment. A terminal body weight was recorded. General health and clinical signs were recorded once daily. Blood was collected to isolate immune cells at 2 hours after the LPS injection. […]
Serum samples (N=82) were processed and shipped to Inotiv Boulder for analysis. […] The samples were analyzed for cytokine levels using the RECYTMAG-65K Luminex™ kit. […]

PTZ-induced seizure = assay: PTZ-induced epilepsy mouse model; assay type: in vivo; conditions: for Latency to Clonic Seizure Event compared to PTZ alone / Latency to First Seizure Event compared to PTZ alone / Latency to Tonic Seizure Event compared to PTZ alone / Percent of animals reaching Tonic-clonic Stage 6 compared to PTZ alone / Racine scores over 5 minute intervals for 30 minutes compared to PTZ alone / Survival Effects: mortality rate compared to the vehicle/PTZ group: PTZ 80 mg/kg, CBD 100 mg/kg 60 minutes prior, Compound 3 100 mg/kg 30 minutes prior to PTZ
Description: Mouse models using GABAa receptor antagonist Pentylenetetrazol (PTZ) are well defined and used as a standard for the identification of potential anticonvulsants to treat generalized clonic seizures (Loscher et al., 1991 Epilepsy Res 8:171-189). The purpose of this study was to evaluate and compare CBD to test article Compound 3, on their therapeutic effects in a mouse model of PTZ-induced seizure. To match up test article plasma concentration time max (Tmax) with the PTZ induced seizures; test articles were administered at 60 minutes and 30 minutes prior to PTZ administration respectively. Vehicle used for treatment groups was 10% EtOH/10% Tween 80/80% Saline.
Mice were acclimated to the procedure room for at least 30 minutes.
Pentylenetetrazole (PTZ; Sigma Aldrich) was formulated in water to a concentration of 16 mg/mL. Injections of PTZ were made at a volume of 5 mL/kg to produce a final dose of 80 mg/kg. […] A 30- • minute maximum latency to seizure was imposed. • Clinical behavior was scored using the following adapted Racine scale: • Score 0, no seizures observed • Score 1, Behavioral arrest (freezing, fixed gaze, staring), vibrissae twitching, • mouth or facial clonus • Score 2, Pop or jump, straub tail, foot splay, head nodding • Score 3, Forelimb clonus, extended forelimbs, multiple pops or jerks • Score 4, Rearing and bilateral forelimb clonus, Running and running/bouncing • Score 5, All limb clonus, rearing and falling (stay fallen on rear side) • Score 6, Tonic hindlimb extensions, cardiac arrest
Behavior was scored by an observer blind to treatment. The highest score reached during every 5 minute period during the 30 minutes after PTZ was administered was recorded. Additionally, the percent tonic-clonic (number of animals progressing to the highest seizure score), and percent mortality was also calculated.

HCT116 = assay: GI50 by MTS assay; assay type: cell-based; conditions: MTS assay, HCT116, 48 hours
Procedure: For MTS assay, the compounds have been tested at 8 concentrations on 4 colon cancer cell lines for 48 hours. The compounds, concentrations and colon cancer cell line panel tested are the following: • CBG: 0 μM, 1.25 μM, 2.5 μM, 5 μM, 10 μM, 20 μM, 40 μM, and 80 μM. • Compound 1: 0 μM, 1.25 μM, 2.5 μM, 5 μM, 10 μM, 20 μM, 40 μM, and 80 μM. • Compound 2: 0 μM, 1.25 μM, 2.5 μM, 5 μM, 10 μM, 20 μM, 40 μM, and 80 μM. • Colon cancer cell line panel: SW620, HCT15, HT29, HCTl16
Four colon cancer cell lines of SW620, HCT15, HT29, and HCT116 were included in the colon cancer cell line panel.
CBG, compound 1 and compound 2 were dissolved in DMSO at a concentration of 10 mM and stored at −20° C.
Evaluation of DM compounds treatment-induced growth inhibition was performed to determine the GI50 of four colon cancer cell lines with MTS assay or clonogenic assay. Each experiment was repeated in triplicate. In GraphPad Prism, data were log-transformed and fit with a nonlinear curve to calculate the GI50.
MTS assay. cells were plated at 96 well plates at a density of 1,000 cells per well. After 24 hours, cells were treated with DM compounds at increasing concentrations or DMSO vehicle and incubated for 48 hours. 20 μl of MTS reagent (Promega) was then added and incubated for 2 hours. The absorbance was measured with a microplate reader at 490 nm. Each experiment was repeated in triplicate. In GraphPad Prism, data were log-transformed and fit with a nonlinear curve to calculate the GI50.

**Q.** With `C[N+]1([C@@H]2O[C@H](C(=O)[O-])[C@@H](O)[C@H](O)[C@H]2O)CCN(CCCN2c3ccccc3Sc3ccc(C(F)(F)F)cc32)CC1` [Trifluoperazine Glucuronide] as the molecule, how does the “average peak area ratio at 60 min/average peak area ratio at 0 min (printed in the half-life column)” value (UGT1A4; Test Conc. 1 μM) read?
**A.** *6.38

**Q.** With `C=C(C)[C@@H]1CCC(C)=C[C@H]1c1c(O)cc(CCCCC)cc1OC` [Compound 3, (1′R,2′R)-6-methoxy-5′-methyl-4-pentyl-2′-(prop-1-en-2-yl)-1′,2′,3′,4′-tetrahydro-[1,1′-biphenyl]-2-ol] as the molecule, how does the “Cmax relative to CBD” value ([1]; IP) read?
**A.** 8 fold

**Q.** And the “plasma PK Area Under the Curve (AUC) relative to CBD” value ([1]; IP)?
**A.** over 4 fold

**Q.** What about the Cmax ([1]; plasma, 100 mg/kg IP) of the same molecule?
**A.** 21800 ng/mL

**Q.** What about the AUC(0-t) ([1]; plasma, 100 mg/kg IP) of the same molecule?
**A.** 30200 ng·h/mL

**Q.** And the TMax ([1]; plasma, 100 mg/kg IP)?
**A.** 0.5 h

**Q.** And the “reduction of IL-1B and IFNy relative to CBG (in words)” value [2]?
**A.** equal to or better than CBG

**Q.** And the “Latency to Clonic Seizure Event compared to PTZ alone” value (PTZ-induced seizure)?
**A.** did not yield a significantly different latency; also recorded: strong trend toward longer latency

**Q.** What about the “Latency to First Seizure Event compared to PTZ alone” value (PTZ-induced seizure) of the same molecule?
**A.** trended towards a longer latency than PTZ alone, although the difference was not significant

**Q.** And the “Latency to Tonic Seizure Event compared to PTZ alone” value (PTZ-induced seizure)?
**A.** significantly longer latency

**Q.** What about the “Percent of animals reaching Tonic-clonic Stage 6 compared to PTZ alone” value (PTZ-induced seizure) of the same molecule?
**A.** significantly lower proportion

**Q.** And the “Racine scores over 5 minute intervals for 30 minutes compared to PTZ alone” value (PTZ-induced seizure)?
**A.** significant improvement in Racine scores

**Q.** And the “Survival Effects: mortality rate compared to the vehicle/PTZ group” value (PTZ-induced seizure)?
**A.** significantly reduced mortality rate

**Q.** What about the “overall anti-epileptic activity (in words)” value (PTZ-induced seizure; PTZ seizure model) of the same molecule?
**A.** clear anti-epileptic therapeutic activity

**Q.** For `C=C(C)[C@@H]1CCC(C)=C[C@H]1c1c(O)cc(CCCCC)cc1O` [CBD, cannabidiol, reference compound], which “Tmax (in words)” value ([1]; IP) is on record?
**A.** two separate Tmax peaks

**Q.** And the Cmax ([1]; plasma, 100 mg/kg IP)?
**A.** 2730 ng/mL

**Q.** What about the AUC(0-t) ([1]; plasma, 100 mg/kg IP) of the same molecule?
**A.** 6830 ng·h/mL

**Q.** What about the “Latency to Clonic Seizure Event compared to PTZ alone” value (PTZ-induced seizure) of the same molecule?
**A.** did not yield a significantly different latency

**Q.** What about the “Latency to First Seizure Event compared to PTZ alone” value (PTZ-induced seizure) of the same molecule?
**A.** did not result in a difference in latency to first seizure

**Q.** And the “Latency to Tonic Seizure Event compared to PTZ alone” value (PTZ-induced seizure)?
**A.** did not yield a significantly different latency

**Q.** What about the “Percent of animals reaching Tonic-clonic Stage 6 compared to PTZ alone” value (PTZ-induced seizure) of the same molecule?
**A.** did not yield a significantly difference in proportion; also recorded: did not yield a significant difference in proportion

**Q.** And the “Racine scores over 5 minute intervals for 30 minutes compared to PTZ alone” value (PTZ-induced seizure)?
**A.** did not yield a significant change in clinical score

**Q.** And the “Survival Effects: mortality rate compared to the vehicle/PTZ group” value (PTZ-induced seizure)?
**A.** did not yield a significantly reduced mortality rate

**Q.** With `CN1CCN(CCCN2c3ccccc3Sc3ccc(C(F)(F)F)cc32)CC1` [Trifluoperazine, trifluoperazine] as the molecule, how does the microsomal CLint at 1 µM (UGT1A4; human, recombinant UGT1A4 Supersomes, pH 7.4, Test Conc. 1 μM, read-out: Recombinant UGT CLINT Clearance) read?
**A.** 0.7 µL/min/mg

**Q.** And the half-life at 1 µM (UGT1A4; human, recombinant UGT1A4 Supersomes, pH 7.4, Test Conc. 1 μM, read-out: Recombinant UGT Half Life T1/2)?
**A.** 16.4 h

**Q.** Which GI50 (HCT116; average of N1-N3, read-out: GI50 AVG) does the source give for `CCCCCc1cc(O)c(C/C=C(\C)CCC=C(C)C)c(OC)c1` [Cmpd1] here?
**A.** 10.3 µM

**Q.** What about the GI50 (HCT116; replicate N1, read-out: GI50 N1) of the same molecule?
**A.** 10.5 µM

**Q.** What about the GI50 (HCT116; replicate N2, read-out: GI50 N2) of the same molecule?
**A.** 9.96 µM

**Q.** And the GI50 (HCT116; replicate N3, read-out: GI50 N3)?
**A.** 10.5 µM
